Experimental data reported in patent US10508115B2, “Toll-like receptor 7 (TLR7) agonists having heteroatom-linked aromatic moieties, conjugates thereof, and methods and uses therefor” (BRISTOL-MYERS SQUIBB COMPANY, priority 2017, dated 2019).

target: human TLR7 (Homo sapiens (Human), UniProt Q9NYK1); test: HEK-Blue TLR7 reporter assay (TLR7 agonist activity); type: cell-based; conditions: HEK-Blue TLR7 cells, SEAP reporter, 18 h treatment; read-out: TLR7 Agonism (EC50)
Experimental: This example describes a method for assaying TLR7 agonist activity of the compounds disclosed in this specification.
HEK-Blue™ TLR7 cells were added to each well of a 384-well tissue-culture plate (15,000 cells per well) and incubated 16-18 h at 37° C., 5% CO2. Compounds (100 nl) were dispensed into wells containing the HEK-Blue™ TLR cells and the treated cells were incubated at 37° C., 5% CO2. After 18 h treatment ten microliters of freshly-prepared Quanti-Blue™ reagent (Invivogen) was added to each well, incubated for 30 min (37° C., 5% CO2) and SEAP levels measured using an Envision plate reader (OD=620 nm).

human TLR7, sequence (Q9NYK1 27-1049): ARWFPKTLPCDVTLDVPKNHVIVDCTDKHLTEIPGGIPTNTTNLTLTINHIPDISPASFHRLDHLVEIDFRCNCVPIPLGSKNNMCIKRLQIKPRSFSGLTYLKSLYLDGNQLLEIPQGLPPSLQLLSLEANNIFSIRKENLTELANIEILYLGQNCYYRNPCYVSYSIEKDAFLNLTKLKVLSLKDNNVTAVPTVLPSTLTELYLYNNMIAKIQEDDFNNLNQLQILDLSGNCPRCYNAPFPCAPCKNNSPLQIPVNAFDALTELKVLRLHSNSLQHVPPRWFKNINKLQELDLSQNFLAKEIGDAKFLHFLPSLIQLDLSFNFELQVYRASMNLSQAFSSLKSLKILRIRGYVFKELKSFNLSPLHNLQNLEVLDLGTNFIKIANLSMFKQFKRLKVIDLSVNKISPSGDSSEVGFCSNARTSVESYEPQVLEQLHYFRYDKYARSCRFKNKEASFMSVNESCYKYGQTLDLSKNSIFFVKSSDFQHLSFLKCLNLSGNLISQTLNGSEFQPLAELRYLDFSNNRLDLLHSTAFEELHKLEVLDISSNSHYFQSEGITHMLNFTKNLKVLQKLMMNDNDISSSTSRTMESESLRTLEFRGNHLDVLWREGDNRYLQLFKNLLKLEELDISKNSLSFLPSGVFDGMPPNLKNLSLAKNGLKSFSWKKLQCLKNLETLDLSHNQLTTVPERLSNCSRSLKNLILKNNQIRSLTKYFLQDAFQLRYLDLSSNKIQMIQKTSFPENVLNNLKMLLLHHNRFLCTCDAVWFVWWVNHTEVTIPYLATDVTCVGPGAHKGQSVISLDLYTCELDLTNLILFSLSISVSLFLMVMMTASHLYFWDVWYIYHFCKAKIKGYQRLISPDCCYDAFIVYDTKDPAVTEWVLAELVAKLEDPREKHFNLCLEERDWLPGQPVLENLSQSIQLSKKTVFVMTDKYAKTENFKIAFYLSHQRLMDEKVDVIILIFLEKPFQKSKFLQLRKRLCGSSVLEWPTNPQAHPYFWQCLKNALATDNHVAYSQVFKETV

Compared with `CCCCOc1nc(N)c2nc(O)n(Cc3ccc(Oc4ccc(CNC)cc4)cc3)c2n1` [Ia-02], `CCCCOc1nc(N)c2nc(O)n(Cc3ccc(Oc4ccc(CO)cc4)cc3)c2n1` [Ia-01] is 11-fold higher in EC50: 1.3 nM for the first, 14 nM for the second.

`CCCCOc1nc(N)c2nc(O)n(Cc3ccc(Oc4ccc(CNCCOC)cc4)nc3)c2n1` [Ib-07] and `CCCCOc1nc(N)c2nc(O)n(Cc3ccc(Oc4ccc(CNCCO)cc4)nc3)c2n1` [Ib-06] are within 1.5-fold of each other in EC50: 0.62 nM for the first, 0.91 nM for the second.

Going from `CCCCOc1nc(N)c2nc(O)n(Cc3ccc(Oc4cccc(CNCCO)n4)cc3)c2n1` [Ic-05] to `CCCCOc1nc(N)c2nc(O)n(Cc3ccc(Oc4cccc(CNCCOC)n4)cc3)c2n1` [Ic-06], the EC50 rises from 0.871 nM to 2.82 nM (3.2-fold).

First: CCCCOc1nc(N)c2nc(O)n(Cc3cccc(Oc4cccc(CNCc5ccncc5)c4)c3)c2n1 [IIa-11]
Second: CCCCOc1nc(N)c2nc(O)n(Cc3cccc(Oc4cccc(CNC5CCOCC5)c4)c3)c2n1 [IIa-04]
The EC50 of the first is 3.8-fold higher: 431 nM for the first, 113 nM for the second. The second is the more potent here.

Going from `CCCCOc1nc(N)c2nc(O)n(Cc3ccc(Oc4ccc(CNC5CC5)cc4)nc3)c2n1` [Ib-17] to `CCCCOc1nc(N)c2nc(O)n(Cc3ccc(Oc4ccc(CNCCOC)cc4)cc3)c2n1` [Ia-07], the EC50 rises from 0.83 nM to 1.3 nM (1.6-fold). The first is the more potent here.

With `CCCCOc1nc(N)c2nc(O)n(Cc3ccc(Oc4ccc(CNCCS(C)(=O)=O)cc4)c(F)c3)c2n1` [Ie-07] the EC50 was 1.71 nM.

test system: interleukin 6 (IL-6); test: Interleukin 6 induction assay in human whole blood; type: cell-based; conditions: 37° C. for 20 h, AlphaLISA, read-out: IL6 Induction (EC50)
Experimental: This example describes a method for assaying interleukin 6 induction by compounds disclosed in this specification.
Compounds diluted in DMSO were transferred to individual wells of a Matrix Technologies clear, V-bottom 384-well plate using ECHO acoustic liquid handling technology (25 nL per well). Human whole-blood samples (25 uL) were added to each well using a CyBio FeliX liquid handling instrument. The plate was shaken on a plate shaker for three min before incubating the reaction mixtures at 37° C. for 20 h. Basel RPMI 1640 medium (supplemented with L-glutamine) was then added to each well (25 uL per well) prior to liberating plasma from each sample by centrifugation (450×g, 5 min, ambient temperature). Treated plasma samples (3 uL) were subsequently transferred to individual wells of a white, shallow, 384-well ProxiPlate (Perkin Elmer) using the FeliX liquid handling instrument and their interleukin 6 levels were measured using AlphaLISA technology as described by the manufacturer, PerkinElmer. Data analyses software was used to determine compound EC50 values where the baseline was established using average DMSO values and 100% induction established using reference compound values at the highest concentration tested. EC50's can be determined with software such as Graphpad Prism™.

Compared with `CCCCOc1nc(N)c2nc(O)n(Cc3ccc(Oc4ccc(CNC5CCOCC5)cc4)c(F)c3)c2n1` [Ie-08], `CCCCOc1nc(N)c2nc(O)n(Cc3ccc(Oc4ccc(CNC5CCC5)cc4)c(F)c3)c2n1` [Ie-02] is 2.5-fold higher in EC50: 7.6 nM for the first, 19 nM for the second. The first is the more potent here.

`CCCCOc1nc(N)c2nc(O)n(Cc3ccc(Oc4ccc(CNC5C6CC5C6)cc4)nc3)c2n1` (stereo not drawn) [Ib-09] and `CCCCOc1nc(N)c2nc(O)n(Cc3ccc(Oc4ccc(CNC5CC5)cc4)nc3)c2n1` [Ib-17] are within 1.5-fold of each other in EC50: 5.91 nM for the first, 5.11 nM for the second.

First: CCCCOc1nc(N)c2nc(O)n(Cc3ccc(Oc4ccc(CNCCOC)cc4)nc3)c2n1 [Ib-07]
Second: CCCCOc1nc(N)c2nc(O)n(Cc3ccc(Oc4ccc(CNCCO)cc4)nc3)c2n1 [Ib-06]
The EC50 of the first is 1.8-fold lower: 5.81 nM for the first, 10.7 nM for the second.

Compared with `CCCCOc1nc(N)c2nc(O)n(Cc3ccc(Oc4ccc(CNCC(F)F)cc4)c(F)c3)c2n1` [Ie-04], `CCCCOc1nc(N)c2nc(O)n(Cc3ccc(Oc4ccc(CNCC(C)C)cc4)c(F)c3)c2n1` [Ie-01] is 18-fold lower in EC50: 460 nM for the first, 26 nM for the second.

Compared with `CCCCOc1nc(N)c2nc(O)n(Cc3ccc(Oc4cccc(CNCCO)n4)cc3)c2n1` [Ic-05], `CCCCOc1nc(N)c2nc(O)n(Cc3ccc(Oc4cccc(CNCCC#N)n4)cc3)c2n1` [Ic-07] is 3-fold higher in EC50: 44.2 nM for the first, 133 nM for the second. The first is the more potent here.

First: CCCCOc1nc(N)c2nc(O)n(Cc3ccc(Oc4ccc(CNCC(F)F)nc4)nc3)c2n1 [Id-06]
Second: CCCCOc1nc(N)c2nc(O)n(Cc3ccc(Oc4ccc(CNCC(C)C)nc4)nc3)c2n1 [Id-01]
The EC50 of the first is 3.6-fold higher: 100 nM for the first, 28 nM for the second.

`CCCCOc1nc(N)c2nc(O)n(Cc3ccc(Oc4ccc(CN5CCOCC5)nc4)nc3)c2n1` [Id-07] and `CCCCOc1nc(N)c2nc(O)n(Cc3ccc(Oc4ccc(CN5CCN(C)CC5)nc4)nc3)c2n1` [Id-08] are within 1.5-fold of each other in EC50: 15 nM for the first, 21 nM for the second.

Compared with `CCCCOc1nc(N)c2nc(O)n(Cc3ccc(Oc4ccc(CO)cc4)nc3)c2n1` [Ib-01], `CCCCOc1nc(N)c2nc(O)n(Cc3ccc(Oc4ccc(CNC)cc4)nc3)c2n1` [Ib-02] is 3.5-fold lower in EC50: 104 nM for the first, 29.6 nM for the second. The second is the more potent here.

Compared with `CCCCOc1nc(N)c2nc(O)n(Cc3ccc(Oc4ccc(CNCCO)cc4)cc3)c2n1` [Ia-06], `CCCCOc1nc(N)c2nc(O)n(Cc3ccc(Oc4ccc(CNCCOC)cc4)cc3)c2n1` [Ia-07] is 2.6-fold lower in EC50: 17.3 nM for the first, 6.62 nM for the second. The second is the more potent here.

Going from `CCCCOc1nc(N)c2nc(O)n(Cc3ccc(Oc4ccc(CNCc5ccccc5)cc4)cc3)c2n1` [Ia-08] to `CCCCOc1nc(N)c2nc(O)n(Cc3ccc(Oc4ccc(CO)cc4)cc3)c2n1` [Ia-01], the EC50 rises from 24.3 nM to 506 nM (21-fold).

First: CCCCOc1nc(N)c2nc(O)n(Cc3ccc(Oc4ccc(CNCC5CC5)cc4)nc3)c2n1 [Ib-15]
Second: CCCCOc1nc(N)c2nc(O)n(Cc3ccc(Oc4ccc(CNCC(F)F)cc4)nc3)c2n1 [Ib-13]
The EC50 of the first is 2.1-fold higher: 64.7 nM for the first, 30.9 nM for the second. The second is the more potent here.

Compared with `CCCCOc1nc(N)c2nc(O)n(Cc3ccc(Oc4ccc(CNC5CCC5)nc4)nc3)c2n1` [Id-02], `CCCCOc1nc(N)c2nc(O)n(Cc3ccc(Oc4ccc(CNC5CCOCC5)nc4)nc3)c2n1` [Id-03] is 1.8-fold lower in EC50: 25 nM for the first, 14 nM for the second. The second is the more potent here.

Going from `CCCCOc1nc(N)c2nc(O)n(Cc3ccc(Oc4ccc(CNCCC#N)cc4)nc3)c2n1` [Ib-16] to `CCCCOc1nc(N)c2nc(O)n(Cc3ccc(Oc4ccc(CNCCS(C)(=O)=O)cc4)nc3)c2n1` [Ib-14], the EC50 falls from 84.8 nM to 18.9 nM (4.5-fold).

`CCCCOc1nc(N)c2nc(O)n(Cc3ccc(Oc4ccc(CNC5COC5)cc4)nc3)c2n1` [Ib-05] and `CCCCOc1nc(N)c2nc(O)n(Cc3ccc(Oc4ccc(CNC5CC(F)(F)C5)cc4)nc3)c2n1` [Ib-10] are within 1.5-fold of each other in EC50: 9.57 nM for the first, 14.3 nM for the second.

Compared with `CCCCOc1nc(N)c2nc(O)n(Cc3ccc(Nc4ccc(CN5CCCC5)cc4)nc3)c2n1` [If-06], `CCCCOc1nc(N)c2nc(O)n(Cc3ccc(Nc4ccc(CNC5CCC5)cc4)nc3)c2n1` [If-04] is 1.5-fold lower in EC50: 3.8 nM for the first, 2.5 nM for the second. The second is the more potent here.

Compared with `CCCCOc1nc(N)c2nc(O)n(Cc3ccc(Oc4ccc(CN5CCC5)cc4)c(F)c3)c2n1` [Ie-03], `CCCCOc1nc(N)c2nc(O)n(Cc3ccc(Oc4ccc(CN5CCOCC5)cc4)c(F)c3)c2n1` [Ie-09] is 13-fold higher in EC50: 19 nM for the first, 250 nM for the second. The first is the more potent here.

Compared with `CCCCOc1nc(N)c2nc(O)n(Cc3ccc(Oc4cccc(CNCC(C)C)n4)cc3)c2n1` [Ic-01], `CCCCOc1nc(N)c2nc(O)n(Cc3ccc(Oc4cccc(CNCCOC)n4)cc3)c2n1` [Ic-06] is 2.8-fold higher in EC50: 10.1 nM for the first, 28 nM for the second. The first is the more potent here.

Compared with `CCCCOc1nc(N)c2nc(O)n(Cc3ccc(Oc4cccc(CNC5CCC5)n4)cc3)c2n1` [Ic-02], `CCCCOc1nc(N)c2nc(O)n(Cc3ccc(Oc4cccc(CNC5COC5)n4)cc3)c2n1` [Ic-03] is 4.8-fold higher in EC50: 16.1 nM for the first, 78 nM for the second. The first is the more potent here.

First: CCCCOc1nc(N)c2nc(O)n(Cc3ccc(Oc4ccc(CNC5CCC5)cc4)cc3)c2n1 [Ia-04]
Second: CCCCOc1nc(N)c2nc(O)n(Cc3ccc(Oc4ccc(CNC5CC5)cc4)cc3)c2n1 [Ia-03]
The EC50 of the first is 1.7-fold lower: 10.4 nM for the first, 17.6 nM for the second.

Compared with `CCCCOc1nc(N)c2nc(O)n(Cc3ccc(Oc4ccc(CNC(C)C)cc4)nc3)c2n1` [Ib-03], `CCCCOc1nc(N)c2nc(O)n(Cc3ccc(Oc4ccc(CNCC(C)C)cc4)nc3)c2n1` [Ib-12] is 2-fold lower in EC50: 7.5 nM for the first, 3.77 nM for the second. The second is the more potent here.

Compared with `CCCCOc1nc(N)c2nc(O)n(Cc3ccc(Oc4ccc(CNC5COC5)cc4)cc3)c2n1` [Ia-05], `CCCCOc1nc(N)c2nc(O)n(Cc3ccc(Oc4ccc(CNC5CCCC5)cc4)nc3)c2n1` [Ib-11] is 3.8-fold lower in EC50: 31 nM for the first, 8.14 nM for the second. The second is the more potent here.

`CCCCOc1nc(N)c2nc(O)n(Cc3ccc(Oc4ccc(CNCCO)cc4)c(F)c3)c2n1` [Ie-06] and `CCCCOc1nc(N)c2nc(O)n(Cc3ccc(Oc4ccc(CNCCOC)cc4)c(F)c3)c2n1` [Ie-05] are within 1.5-fold of each other in EC50: 29 nM for the first, 24 nM for the second.

`CCCCOc1nc(N)c2nc(O)n(Cc3ccc(Nc4ccc(CNCCS(C)(=O)=O)cc4)nc3)c2n1` [If-09] and `CCCCOc1nc(N)c2nc(O)n(Cc3ccc(Nc4ccc(CNCCO)cc4)nc3)c2n1` [If-02] are within 1.5-fold of each other in EC50: 68 nM for the first, 72 nM for the second.

`CCCCOc1nc(N)c2nc(O)n(Cc3ccc(Oc4ccc(CNCCOC)nc4)nc3)c2n1` [Id-04] and `CCCCOc1nc(N)c2nc(O)n(Cc3ccc(Oc4ccc(CNCCO)nc4)nc3)c2n1` [Id-05] are within 1.5-fold of each other in EC50: 13 nM for the first, 12 nM for the second.

`CCCCOc1nc(N)c2nc(O)n(Cc3ccc(Nc4ccc(CNCC(C)C)cc4)nc3)c2n1` [If-01] and `CCCCOc1nc(N)c2nc(O)n(Cc3ccc(Nc4ccc(CNCC(F)F)cc4)nc3)c2n1` [If-05] are within 1.5-fold of each other in EC50: 24 nM for the first, 17 nM for the second.

First: CCCCOc1nc(N)c2nc(O)n(Cc3ccc(Nc4ccc(CNCC(C)(C)O)cc4)nc3)c2n1 [If-07]
Second: CCCCOc1nc(N)c2nc(O)n(Cc3ccc(Nc4ccc(CNC5CCOCC5)cc4)nc3)c2n1 [If-03]
The EC50 of the first is 1.8-fold lower: 7.8 nM for the first, 14 nM for the second. The first is the more potent here.

Compared with `CCCCOc1nc(N)c2nc(O)n(Cc3ccc(Oc4ccc(CN5CCN(C)CC5)cc4)c(F)c3)c2n1` [Ie-10], `CCCCOc1nc(N)c2nc(O)n(Cc3ccc(Oc4ccc(CNCCS(C)(=O)=O)cc4)c(F)c3)c2n1` [Ie-07] is 1.7-fold higher in EC50: 75 nM for the first, 130 nM for the second. The first is the more potent here.

test system: IFN-α; test: not given; conditions: fold less potent than corresponding purine-8-one compound; cited from earlier work

In the case of `CCCCOc1nc(N)c2c(n1)N(Cc1cccc(CN3CCCC3)c1)CC(=O)N2` [Vesatolimod, vesatolimod], the “potency less than that of the corresponding purine-8-one compound, as measured by IFN-α induction” value is listed as 100 ×.
